Earlier results in patent US20130053422A1, “Antimicrobial Compositions” (priority 2010, published 2013).

Experiments:
Settings in all cases: after 5 to 60 minutes
[1] = system: bovine parainfluenzae 3
[2] = system: Vaccinia virus
[3] = system: Herpes virus type 1

CCCCCCCCCCCC(=O)N[C@@H](CCCN=C(N)N)C(=O)OCC [LAE, lauric arginate]
nearly complete reduction: reduction of bovine parainfluenzae 3 [1] | reduction of Vaccinia virus [2] | reduction of Herpes virus type 1 [3]
